In general, GI50 refers to the concentration that inhibits growth by half.

These results are taken from ChEMBL document CHEMBL1201862, “PubChem BioAssay data set” (2004).

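A five-concentration, 48-hour dose response in 96-well plates underlies each endpoint, interpolated linearly between surrounding concentrations. GI50 marks 50% less growth.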 Calls of active or inactive are those of the source. Cut-off read from the data, not from the text of the source: active = GI50 up to about 1.1 µM and inactive = higher.

Test systems include 786-0; A498; A549; EKVX; HCT-116; HCT-15; HOP-62; HOP-92; K562; LOX IMVI; NCI-H460; NCI-H522; OVCAR-5; SF-268; SF-295; SNB-75; UO-31; NCI-H226.
Assay in all cases: DTP human tumour cell line panel, 48 h

As for `O=C(Nc1ccc(Cl)cc1)/C(Cc1cccc[n+]1[O-])=N\Nc1ccc([N+](=O)[O-])cc1[N+](=O)[O-]`, the GI50 was > 100 µM (inactive) in the assay on 786-0; > 100 µM (inactive) in the assay with A498; > 100 µM (inactive) with A549; > 100 µM (inactive) in the assay on EKVX; > 100 µM (inactive) in the assay with HCT-116; greater than 100 µM with HCT-15. Also, the GI50 in the assay on HOP-62, in the assay with HOP-92, with K562, in the assay on LOX IMVI, in the assay with NCI-H460 and in the assay on NCI-H522 was > 100 µM (inactive) throughout. The GI50 in the assay on OVCAR-5, in the assay on SF-268, in the assay with SF-295, in the assay on SNB-75 and in the assay with UO-31 was > 100 µM (inactive) throughout.

Take `CC(=O)OCC1OC(Sc2ccccn2)C=CC1OC(C)=O` (stereo not drawn): the GI50 with 786-0, in the assay on A498, in the assay on A549, with EKVX, in the assay with HCT-116 and in the assay with HOP-62 was > 100 µM (inactive) each time. The GI50 with HOP-92, in the assay with K562, in the assay on LOX IMVI, in the assay with NCI-H226, in the assay on NCI-H522 and in the assay with OVCAR-5 was > 100 µM (inactive) in each case. Also, the GI50 in the assay with SF-268, in the assay with SF-295, with SNB-75 and in the assay with UO-31 was > 100 µM (inactive) in each case.

Consider `Cc1c(-c2nnc(-c3ccccc3)o2)c(=O)n(-c2ccccc2)n1C`, for which the GI50 with 786-0 is > 100 µM (inactive); with A498, > 100 µM (inactive); with A549 it was > 100 µM (inactive); in the assay on EKVX it was > 100 µM (inactive); in the assay on HCT-116 it was > 100 µM (inactive); in the assay on HCT-15, greater than 100 µM. Further, the GI50 with HOP-62, in the assay with HOP-92, in the assay on K562, with LOX IMVI, in the assay with NCI-H226 and with NCI-H460 was > 100 µM (inactive) in each case. Besides, the GI50 in the assay on NCI-H522, in the assay on SF-268, with SF-295, in the assay with SNB-75 and in the assay with UO-31 was > 100 µM (inactive) throughout.

Turning to `Brc1ccc(N2C[N+](c3ccc(Br)cc3)=NC(c3ccccc3)=N2)cc1.[O-][Cl+3]([O-])([O-])[O-]`, the GI50 in the assay on 786-0 was > 100 µM (inactive); in the assay on A498, > 100 µM (inactive); with A549, 75.9 µM (inactive); with EKVX, 33.9 µM (inactive); with HCT-116, 49.2 µM (inactive); in the assay with HCT-15, greater than 100 µM. Besides, the GI50 is 74.1 µM (inactive) in the assay with HOP-62; 77.1 µM (inactive) with HOP-92; 31.3 µM (inactive) in the assay with K562; > 100 µM (inactive) in the assay on NCI-H226; > 100 µM (inactive) with NCI-H460; 36 µM (inactive) in the assay on NCI-H522. Besides, the GI50 was > 100 µM (inactive) in the assay on OVCAR-5; 99.3 µM (inactive) with SF-268; 29.4 µM (inactive) with SF-295; > 100 µM (inactive) in the assay on SNB-75; > 100 µM (inactive) in the assay on UO-31.

As to `CC(=O)NNc1nc(C)c(C(=O)/C=C/c2ccc(Cl)c(Cl)c2)s1`, the GI50 was > 100 µM (inactive) with 786-0; > 100 µM (inactive) in the assay with A498; > 100 µM (inactive) in the assay with A549; > 100 µM (inactive) in the assay on EKVX; greater than 100 µM in the assay on HCT-15; > 100 µM (inactive) in the assay on HOP-62. For the same molecule, the GI50 in the assay on HOP-92 was > 100 µM (inactive); in the assay on K562, > 100 µM (inactive); in the assay with LOX IMVI it was > 100 µM (inactive); in the assay with NCI-H460, > 100 µM (inactive); with NCI-H522 it was 95.9 µM (inactive); in the assay with OVCAR-5, > 100 µM (inactive). For the same molecule, the GI50 in the assay with SF-268, with SF-295, in the assay with SNB-75 and with UO-31 was > 100 µM (inactive) each time.
